Measurements taken from patent US7829304B2, “Compounds and related methods for mutant p53 reactivation” (Northwestern University, priority 2003, dated 2010).
Entries after “also recorded” stand apart in the source; their conditions may differ.

What was measured:
[1] = test system: Saos2 cell lines expressing mutant p53 (Saos2-175, Saos2-281); assay: Cellular growth studies on Saos-2 cells expressing mutant p53; format: cell-based, human; conditions: for selective growth arrest/killing of cells expressing mutant p53 (in words): Saos-2 cells with mutant p53 versus p53-null cells
Procedure: (§1) Cellular growth studies were performed on Saos-2 cells, derived from a human osteosarcoma cancer cell line, according to the method described in Example 44. The cells had either no p53 (null) or mutant (mt) p53 at residues 175 and/or 281 (R175H and […], respectively). Selective arrest of mutant cells indicates good anticancer activity.
Cellular growth studies were performed on Saos2 cells. Human osteosarcoma Saos2 cells are devoid of endogenous p53 due to biallelic deletion of the p53 gene. Previously, a series of Saos2 cell lines were engineered to express several human p53 mutants that are commonly found in human cancers. The derivative Saos2 cell lines used in the present study included the following: 1) Saos2-CMV, which is the vector-only control cell line that is negative for p53 protein. 2) Saos2-175, which expresses the human mutant p53-R175H protein. The 175H substitution disrupts the structure of the protein resulting in the loss of DNA binding and tumor suppressor function. This mutation is found in ˜6% of all cancers of diverse tumor types. 3) Saos2-273, which expressed the human mutant p53-R273H protein. The 273H substitution eliminates a DNA contact point resulting in the loss of DNA binding and tumor suppressor function. This mutation represents the second most common hot spot mutation and is found in nearly 8% of all cancers. 4) Saos2-281, which expresses the human mutant p53-D281G protein. This mutation disrupts a stabilizing salt bridge resulting in the loss of DNA binding and tumor suppressor function.
The cells were grown at 37° C. in Dulbecco's modified Eagle's medium (Cambrex, East Rutherford, N.J.) supplemented with 10% fetal bovine serum (Hyclone, Logan, Utah) under 5% CO2. The cells were plated at 1×10^6 per 10 cm tissue culture plates and treated with escalating doses of the indicated compounds (Table 1) for varying lengths of time. Routine concentrations of the synthesized compounds ranged from 1-75 μM. After 72-96 hours, the cells were refed with fresh medium containing the appropriate concentration of the compound. In addition, parallel cultures were prepared and maintained under identical conditions without drug treatment as negative controls. The cells were microscopically analyzed during the course of treatment and the overall effectiveness of the drug treatment on cell growth and survival was assessed on day 7 by staining the cells with Giemsa Stain GS500 (SIGMA, St. Louis, Mo.). Prima-1 was included in all experiments for comparison purposes. […] The few Saos2 mutant p53 cells remaining after treatment with compound 7 were quite large and flat, reminiscent of a differentiated cell.

[2] = test system: Saos2-CMV cells (p53-null, vector-only control); assay: Cellular growth studies on p53-null Saos2 control cells; format: cell-based, human
Procedure: as §1
Cellular growth studies were performed on Saos2 cells. Human osteosarcoma Saos2 cells are devoid of endogenous p53 due to biallelic deletion of the p53 gene. Previously, a series of Saos2 cell lines were engineered to express several human p53 mutants that are commonly found in human cancers. The derivative Saos2 cell lines used in the present study included the following: 1) Saos2-CMV, which is the vector-only control cell line that is negative for p53 protein. 2) Saos2-175, which expresses the human mutant p53-R175H protein. […]
The cells were grown at 37° C. in Dulbecco's modified Eagle's medium (Cambrex, East Rutherford, N.J.) supplemented with 10% fetal bovine serum (Hyclone, Logan, Utah) under 5% CO2. […] The cells were microscopically analyzed during the course of treatment and the overall effectiveness of the drug treatment on cell growth and survival was assessed on day 7 by staining the cells with Giemsa Stain GS500 (SIGMA, St. Louis, Mo.). […]

Row | Compound | selective growth arrest/killing of cells expressing mutant p53 (in words) [1] | other results
1 | CC(=O)OCC(C)(N)C(=O)c1ccccc1.Cl (stereo not shown) [Compound 17, 2-Amino-2-methyl-3-oxo-3-phenylpropyl acetate hydrochloride] | eliminates the desired activity | 
2 | CC(=O)OCC(N)C(=O)N1CCOCC1.Cl (stereo not shown) [Compound 15, 3-Acetoxy-1-morpholino-1-oxopropan-2-aminium chloride] | the desired activity is lost | 
3 | CC(=O)OC[C@@H](N)C(=O)c1ccccc1.Cl [Compound 8, (R)-3-Acetoxy-1-oxo-1-phenylpropan-2-aminium chloride] | improved activity over (±)-7 | 
4 | CNC(COC(C)=O)C(=O)c1ccccc1.Cl (stereo not shown) [Compound 16, 2-(Methylamino)-3-oxo-3-phenylpropyl acetate hydrochloride] |  | selective growth arrest/killing of cells expressing mutant p53 (in words) ([1]; acetate hydrochloride): the desired activity is lost; also recorded: eliminates the desired activity
5 | COC(=O)C(N)COC(C)=O.Cl (stereo not shown) [Compound 14, 3-Acetoxy-1-methoxy-1-oxopropan-2-aminium chloride] | the desired activity is lost | 
6 | CC(=O)OCC(N)C(=O)c1ccccc1.Cl (racemic) [Compound 7, 3-Acetoxy-1-oxo-1-phenylpropan-2-aminium chloride] | activity at lower concentrations, as compared to PRIMA-1; also recorded: efficiently and selectively inhibited the growth of the Saos2 cell lines expressing mutant p53; also recorded: particularly effective at selectively killing cells expressing R175H and R281G p53 mutants at lower concentrations than PRIMA-1 | effect on growth of CMV-only cells which lack p53 protein ([2]; Saos2-CMV, assessed on day 7 by Giemsa stain): no effect
7 | CC(=O)OCC(N)(COC(C)=O)C(=O)c1ccccc1.Cl [Compound 4, 3-Acetoxy-2-(acetoxymethyl)-1-oxo-1-phenylpropan-2-aminium chloride] | activity at lower concentrations, as compared to PRIMA-1; also recorded: showed selectivity for R281G mutants | minimal effective concentration ([1]; Homo sapiens, 168 h, Mutant: 281, Saos-2 cells, concentration at which active, doses 1-75 μM, cell growth and survival assessed on day 7 by Giemsa stain): 10 µM
8 | O=C1C2CCN(CC2)C1(CO)CO [PRIMA-1, reference compound] |  | toxic to p53-null cells at concentration ([2]; p53-null Saos-2 cells): 75 µM
